In patent US20070292888A1, “Methods for Measuring Enzyme Activities in Cells, Blood, Tumors and Tissues” (GEN-PATH PHARMACEUTICALS, INC., priority 2004, published 2007):

Molecular target: T1, alpha-ketoglutarate dehydrogenase (kGDH) (Mus musculus, UniProt Q60597)
T1 construct: from tissue; host or cells: mouse brain, blood, tumor and other organs (crude lysates)
T1 sequence (Q60597 41-1023): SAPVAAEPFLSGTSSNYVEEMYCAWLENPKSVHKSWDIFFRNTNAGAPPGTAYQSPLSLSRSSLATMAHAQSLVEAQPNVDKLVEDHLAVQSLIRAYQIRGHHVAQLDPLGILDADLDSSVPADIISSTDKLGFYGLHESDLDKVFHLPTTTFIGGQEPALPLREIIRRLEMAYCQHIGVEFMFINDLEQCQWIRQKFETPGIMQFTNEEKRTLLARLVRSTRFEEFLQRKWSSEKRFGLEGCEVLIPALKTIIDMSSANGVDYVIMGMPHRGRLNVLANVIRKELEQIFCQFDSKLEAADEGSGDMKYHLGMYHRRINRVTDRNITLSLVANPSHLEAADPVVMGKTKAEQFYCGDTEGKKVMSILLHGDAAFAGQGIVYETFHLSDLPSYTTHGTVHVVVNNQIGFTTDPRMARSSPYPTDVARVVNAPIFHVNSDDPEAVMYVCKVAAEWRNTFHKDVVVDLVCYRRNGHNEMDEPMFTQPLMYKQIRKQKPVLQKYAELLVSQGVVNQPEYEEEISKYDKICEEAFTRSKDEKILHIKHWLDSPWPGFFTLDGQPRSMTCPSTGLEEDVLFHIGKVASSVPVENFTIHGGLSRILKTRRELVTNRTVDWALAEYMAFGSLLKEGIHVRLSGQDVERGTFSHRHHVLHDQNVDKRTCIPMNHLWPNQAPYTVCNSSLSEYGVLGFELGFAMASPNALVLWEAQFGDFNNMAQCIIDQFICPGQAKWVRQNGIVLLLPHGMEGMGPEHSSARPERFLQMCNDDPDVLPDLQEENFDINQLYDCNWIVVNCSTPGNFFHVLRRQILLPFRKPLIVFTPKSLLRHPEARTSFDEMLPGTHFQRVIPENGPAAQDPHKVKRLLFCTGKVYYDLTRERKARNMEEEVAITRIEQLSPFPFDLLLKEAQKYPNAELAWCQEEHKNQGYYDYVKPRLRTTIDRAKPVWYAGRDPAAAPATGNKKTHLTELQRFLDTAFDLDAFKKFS
T1 sequence (Q9D2G2 69-454 partner): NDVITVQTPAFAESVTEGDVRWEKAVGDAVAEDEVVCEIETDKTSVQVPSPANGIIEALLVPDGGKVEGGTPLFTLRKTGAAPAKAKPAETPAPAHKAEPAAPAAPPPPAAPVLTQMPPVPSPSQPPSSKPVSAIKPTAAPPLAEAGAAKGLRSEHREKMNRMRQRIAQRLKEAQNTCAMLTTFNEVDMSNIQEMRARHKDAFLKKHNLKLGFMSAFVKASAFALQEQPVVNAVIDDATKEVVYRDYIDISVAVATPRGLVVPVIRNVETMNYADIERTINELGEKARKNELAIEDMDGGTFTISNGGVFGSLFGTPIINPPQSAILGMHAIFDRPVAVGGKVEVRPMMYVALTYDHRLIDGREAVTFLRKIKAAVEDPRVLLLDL
T1 sequence (O08749 36-509 partner): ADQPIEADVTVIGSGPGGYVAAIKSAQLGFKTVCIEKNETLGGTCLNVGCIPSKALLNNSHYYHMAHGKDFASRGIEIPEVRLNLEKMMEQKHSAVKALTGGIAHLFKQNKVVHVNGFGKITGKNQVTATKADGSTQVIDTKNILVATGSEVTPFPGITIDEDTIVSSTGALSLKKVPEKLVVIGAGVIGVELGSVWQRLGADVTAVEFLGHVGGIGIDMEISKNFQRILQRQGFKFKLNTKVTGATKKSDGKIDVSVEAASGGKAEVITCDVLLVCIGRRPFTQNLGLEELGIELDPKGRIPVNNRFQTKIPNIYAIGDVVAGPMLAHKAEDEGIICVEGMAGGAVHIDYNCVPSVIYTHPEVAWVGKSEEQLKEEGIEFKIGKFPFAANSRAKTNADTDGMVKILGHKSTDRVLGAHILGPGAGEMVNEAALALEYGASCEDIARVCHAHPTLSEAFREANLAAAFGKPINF
Assay: alpha-ketoglutarate dehydrogenase activity in tissues of treated mice (fluorescence NADH assay)
Type: in vivo
Method: Blood samples from mice were taken (40 μl whole blood) serially or from mice sacrificed at the end of the experiment. Tissues, such as tumors (e.g. from implantation, xenograft, or arising spontaneously), brain, heart, kidney, liver, lung and spleen were taken and flash frozen in liquid nitrogen or on dry ice and stored in −80° C. until time of assay. Four volumes of cold lysis buffer (20 mM HEPES, pH 7.5, 1 mM EDTA, 0.2 g/l Triton X-100® and 0.2 g/L sodium deoxycholate, supplemented with 1 mM DTT and 1 mM PMSF just before use) were added to the blood, which was dissolved by vortexing. For blood that was frozen before coagulation, a clear lysate was obtained. If coagulation occurred, homogenization was used as described below for tissue. Tissues were suspended in lysis buffer in 10 ml round bottom tubes and homogenized with PowerGen 125® (Fisher Scientific) for four seconds at highest power while submerged in an ice-water bath. This step was repeated after a few seconds, as necessary. […]
Each reaction was monitored for the appearance of NADH (for transketolase, alpha-ketoglutarate dehydrogenase, pyruvate dehydrogenase) or NADPH (for glucose-6-phosphate dehydrogenase) at room temperature in a fluorescent plate reader with excitation at 340 nm and emission at 470 nm in kinetic mode. The velocity was determined by the slope of the initial linear range of increasing fluorescence, expressed in fluorescent units (FU)/min. The protein concentration in the lysate was determined using Bradford assays (BioRad) with BSA as a standard. […]
To investigate the amount of in vivo enzyme inhibition following treatment with an inhibitor, we administered a single dose of N3PT (100 mg/kg, intraperitoneally [i.p.]) and blood, spleen and brain samples were collected at various times from 0-120 hours after dosing. The enzymatic activities were determined as described in Example 1. TK activity was measured in blood and spleen. Because TK activity in the brain is below the detection limit of the assay, kGDH activity was measured in brain samples. […]

Q: What does the source list for `Cc1ccc(C[n+]2csc(CCO)c2C)c(N)n1` [N3PT, 3-[(2-amino-6-methyl-3-pyridinyl)methyl]-5-(2-hydroxyethyl)-4-methyl thiazolium]?
A: kGDH activity in blood (11 days i.p. twice per day, blood): obliterated; brain penetration (after a single dose 100 mg/kg i.p., inferred from brain kGDH activity): little or no significant brain penetration; inhibition of brain kGDH activity (single dose 100 mg/kg i.p., 0-120 hours): No significant inhibition
